Data from patent US20260364175A1, “COMPOSITIONS FOR DRUG ADMINISTRATION” (Aegis Therapeutics, LLC, priority 2018, published 2026).
Values joined by “and” are separate entries in the source; they are usually repeats but may differ in a detail not shown here. Identical values can stand only once. Counter-ions that a name gives are not always drawn.

Columns and labels:
[1] = Octreotide pharmacokinetics after s.c. and oral delivery; conditions: for CL/F: po; for t1/2 1: first peak; for t1/2 2: second peak
Experimental: C prior to administration. […] Death is confirmed by cervical dislocation. […] Euthanasia is confirmed by cervical dislocation.
Pharmacokinetic analyses is carried out as follows.
Serum half-life (t1/2) is determined as follows.

blood glucose [2] = assay: Ocular administration of glucagon plus surfactant, blood glucose in rats; format: in vivo, rat; conditions: for Blood Glucose Concentration: 0.5% surfactant, glucagon eye drops after insulin; for effect on ocular glucagon absorption / blood D-glucose: eye drops, 0.5% surfactant plus glucagon (30 μg)
blood glucose [3] = assay: Ocular administration of insulin plus absorption enhancer, blood glucose in anesthetized rats; format: in vivo, rat (male Sprague-Dawley); conditions: for effect on blood glucose / ocular insulin absorption: 0.5% enhancer with 0.2% insulin eye drops; for Blood Glucose Concentration: 0.5% surfactant, insulin eye drops; for effect on ocular insulin absorption (alkyl chain length comparison): alkylmaltosides with insulin eye drops
[4] = cited from earlier work
[5] = Buccal fast-dispersing melatonin tablets in rabbits; conditions: for bioavailability: fast-disintegrating tablet, buccal
Experimental: Thereafter, the animals return to consciousness. At individual time point over a two hour period, 1 mL blood samples are collected from the central ear artery. […] All samples are stored at −70 °C until assaying for melatonin. Melatonin is measured using a commercial ELISA kit manufactured by GenWay Biotech Inc., San Diego, CA.

blood glucose [6] = assay: Intranasal insulin with/without […] TDM, anesthesia-induced hyperglycemia model; format: in vivo, mouse
Excerpt: Intranasal administration of drugs or agents are possible in animal models e.g., mice and rats, although the nasal opening in is very small. […] Hyperglycemic animals were induced by an intraperitoneal (IP) injection containing xylazine-ketamine and blood glucose levels were monitored over a period of time.

[7] = insulin alone intranasal, minus TDM

## C[C@@H](O)[C@@H]1NC(=O)[C@H](CCCCN)NC(=O)[C@@H](Cc2c[nH]c3ccccc23)NC(=O)[C@H](Cc2ccccc2)NC(=O)[C@@H](NC(=O)[C@H](N)Cc2ccccc2)CSSC[C@@H](C(=O)N[C@H](CO)[C@@H](C)O)NC1=O (relative stereo) [Octreotide, L-Cysteinamide, D-phenylalanyl-L-cysteinyl-L-phenylalanyl-D-tryptophyl-L-lysyl-L-threonyl-N-[2-hydroxy-1-(hydroxymethyl)propyl]-, cyclic (2→7)-disulfide; [R—(R*, R*)]acetate salt]
[1]; mouse, in vivo, 1 mg/kg, oral 3.0% DDM
  CL/F: 54900 mL/min
[1]; mouse, in vivo, 1 mg/kg, oral […] DDM
  CL/F: 28400 mL/min
[1]; mouse, in vivo, sc, 1 mg/kg
  half-life: 41.2 min
[1]; oral 0.5% DDM, 1 mg/kg
  t1/2 1: 1.56 min
  t1/2 2: 52.50 min
  AUC1: 353.03 ng/mL/min
  AUC2: 901.04 ng/mL/min
  t1/2: 52.1 min
[1]; oral 0.5% DDM, 1 mg/kg, listed as octreotide
  t1/2: 53.1 min and 52.1 min
[1]; oral 0.5% Intravail
  Cmax1 higher than Cmax2: more than 2 fold
[1]; oral 3.0% DDM, 1 mg/kg
  t1/2 1: 1.33 min
  t1/2 2: 22.28 min
  AUC1: 21.50 ng/mL/min
  AUC2: 119.74 ng/mL/min
  t1/2: 23.6 min
[1]; oral […] DDM, 1 mg/kg
  t1/2 1: 0.96 min
  AUC1: 97.80 ng/mL/min
  AUC2: 132.90 ng/mL/min
  t1/2: 25.8 min
[1]; s.c., 1 mg/kg
  t1/2 1: 2.04 min
  t1/2 2: 39.15 min
  AUC1: 38.39 ng/mL/min
  AUC2: 251.73 ng/mL/min

## CCCCCCCCCCO[C@@H]1O[C@H](CO)[C@@H](O[C@H]2O[C@H](CO)[C@@H](O)[C@H](O)[C@H]2O)[C@H](O)[C@H]1O [Decyl Maltoside, decyl-β-D-maltoside]
Blood glucose [2]; 130 min
  Blood Glucose Concentration: 95 mg/dL
Blood glucose [2]; 140 min
  Blood Glucose Concentration: 99 mg/dL
Blood glucose [2]; 180 min
  Blood Glucose Concentration: 180 mg/dL
Blood glucose [2]
  effect on ocular glucagon absorption / blood D-glucose: increase significantly
Blood glucose [3]
  effect on blood glucose / ocular insulin absorption: maintained in the normoglycemic (80-120 mg/dl) or near-normoglycemic (120-160 mg/dl) range
  effect on ocular insulin absorption (alkyl chain length comparison): less absorption enhancing activity
Blood glucose [3]; 80 min
  Blood Glucose Concentration: 110 mg/dL
Blood glucose [3]; 90 min
  Blood Glucose Concentration: 120 mg/dL
Blood glucose [3]; 100 min
  Blood Glucose Concentration: 92 mg/dL
Blood glucose [3]; 110 min
  Blood Glucose Concentration: 81 mg/dL
Blood glucose [3]; 120 min
  Blood Glucose Concentration: 87 mg/dL

## CCCCCCCCCCCCCO[C@@H]1O[C@H](CO)[C@@H](O[C@H]2O[C@H](CO)[C@@H](O)[C@H](O)[C@H]2O)[C@H](O)[C@H]1O [Tridecyl Maltoside, tridecyl-β-D-maltoside]
Blood glucose [2]; 130 min
  Blood Glucose Concentration: 82 mg/dL
Blood glucose [2]
  effect on ocular glucagon absorption / blood D-glucose: increase significantly
Blood glucose [3]
  effect on blood glucose / ocular insulin absorption: effective as absorption enhancers
  effect on ocular insulin absorption (alkyl chain length comparison): more effective
Blood glucose [3]; 40 min
  Blood Glucose Concentration: 100 mg/dL
Blood glucose [3]; 50 min
  Blood Glucose Concentration: 87 mg/dL
Blood glucose [3]; 80 min
  Blood Glucose Concentration: 79 mg/dL
Blood glucose [3]; 90 min
  Blood Glucose Concentration: 85 mg/dL
Blood glucose [3]; 100 min
  Blood Glucose Concentration: 76 mg/dL
Blood glucose [3]; 110 min
  Blood Glucose Concentration: 74 mg/dL
Blood glucose [3]; 120 min
  Blood Glucose Concentration: 75 mg/dL
Blood glucose [3]; […] enhancer with insulin eye drops
  effect on ocular insulin absorption: sustained for the two hour time course of the experiment

## CCCCCCCOC1O[C@H](CO)[C@@H](O)[C@H](O)[C@H]1O (stereo partly drawn) [heptylglucoside, heptylglucopyranoside]
Blood glucose [3]
  effect on blood glucose / ocular insulin absorption: ineffective

## CCCCCCOC1O[C@H](CO)[C@@H](O)[C@H](O)[C@H]1O (stereo partly drawn) [hexylglucoside, Hexylglucopyranoside]
Blood glucose [3]
  effect on blood glucose / ocular insulin absorption: ineffective

## COc1ccc2[nH]cc(CCNC(C)=O)c2c1 [melatonin, 5-methoxy-N-acetyltryptamine]
[4]; human, in vivo
  mean elimination half-life: roughly 45 minutes
[4]; oral tablets, normal healthy volunteers (DeMuro et al.)
  absolute bioavailability: approximately 15%
[4]; oral
  oral bioavailability (estimated): 30-50%
[5]; with 1% to 2% alkylsaccharide
  bioavailability: at least 75%
[5]; without alkylsaccharide
  bioavailability: less than 50%
[5]; with alkylsaccharide
  time to maximal concentration vs tablets without alkylsaccharide: approximately one half the time

## CCCCCCCCCOC1O[C@H](CO)[C@@H](O)[C@H](O)[C@H]1O (stereo partly drawn) [nonylglucoside, nonylglucopyranoside]
Blood glucose [3]
  effect on blood glucose / ocular insulin absorption: effectively stimulated insulin absorption
Blood glucose [3]; insulin eye drops + 0.5%, reduced level, time not given
  Blood Glucose: 150 mg/dL
Blood glucose [3]; insulin eye drops + 0.5%, starting level
  Blood Glucose: 297 mg/dL

## CCCCCCCCO[C@@H]1O[C@H](CO)[C@@H](O[C@H]2O[C@H](CO)[C@@H](O)[C@H](O)[C@H]2O)[C@H](O)[C@H]1O [octyl maltoside, Octyl-β-D-maltoside]
Blood glucose [3]
  effect on ocular insulin absorption (alkyl chain length comparison): less absorption enhancing activity

## decylsucrose
Blood glucose [3]; insulin eye drops + 0.5%, 120 min
  Blood Glucose: 164 mg/dL
Blood glucose [3]; insulin eye drops + 0.5%, time 0
  Blood Glucose: 313 mg/dL

## dodecylsucrose [Dodecyl Sucrose]
Blood glucose [2]; 130 min
  Blood Glucose Concentration: 111 mg/dL
Blood glucose [2]; 140 min
  Blood Glucose Concentration: 143 mg/dL
Blood glucose [2]; 150 min
  Blood Glucose Concentration: 202 mg/dL
Blood glucose [2]; 160 min
  Blood Glucose Concentration: 247 mg/dL
Blood glucose [2]; 170 min
  Blood Glucose Concentration: 242 mg/dL
Blood glucose [2]; 180 min
  Blood Glucose Concentration: 234 mg/dL
Blood glucose [2]; 190 min
  Blood Glucose Concentration: 211 mg/dL
Blood glucose [2]
  effect on ocular glucagon absorption / blood D-glucose: increase significantly
Blood glucose [3]; 40 min
  Blood Glucose Concentration: 120 mg/dL
Blood glucose [3]; 90 min
  Blood Glucose Concentration: 86 mg/dL
Blood glucose [3]; insulin eye drops + […], 120 min
  Blood Glucose: 150 mg/dL
Blood glucose [3]; insulin eye drops + […], time 0
  Blood Glucose: 335 mg/dL

## insulin (Humalog)
Blood glucose [6]; insulin + […] TDM intranasal, about 60 minute time point (about 30 min after insulin)
  lowest blood glucose level: about 80 mg/dl
Blood glucose [6]; insulin + […] TDM intranasal, from about 75 minute time point
  blood glucose level: 80 to 100 mg/dL

## insulin: insulin
Blood glucose [6]; [7]
  return of blood glucose to normoglycemic levels: never return to normoglycemic levels
  time after insulin administration at which blood glucose starts to decline: about 110 minutes
  time mark at which blood glucose starts to decline: ~120 min

## regular porcine insulin
Blood glucose [3]; 0.2% in saline only, no enhancer, eye drops
  effect on blood D-glucose: remained elevated
